System: 616215-338-R-J1-PDC tumor spheroids, viability
Experiment: Anticancer human tumor 616215-338-R-J1-PDC patient-derived colon adenocarcinoma cell line growth inhibition [GQUAD]
Details: spheroids with HUVEC and MSC; for IC50: curve of first compound; for viability, T/C: stronger effect = lower value
Method in brief: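 Viability of tumor cells grown as complex spheroids with endothelial and stromal cells, exposed to drug combinations. Top concentration at or near clinical Cmax (else 10 microM), diluted in half-log increments.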

[1] = second compound 0.0316 µM, first compound 0.0316 µM
[2] = second compound 0.0316 µM, first compound 0.316 µM
[3] = second compound 0.1 µM, first compound 0.0316 µM
[4] = second compound 0.1 µM, first compound 0.316 µM
[5] = second compound 0.316 µM, first compound 0.0316 µM
[6] = second compound 0.316 µM, first compound 0.316 µM
[7] = second compound 1 µM, first compound 0.0316 µM
[8] = second compound 1 µM, first compound 0.316 µM
[9] = second compound 3.16 µM, first compound 0.0316 µM
[10] = second compound 3.16 µM, first compound 0.316 µM
[11] = second compound 10 µM, first compound 0.0316 µM
[12] = second compound 10 µM, first compound 0.316 µM
[13] = second compound 0.0316 µM, first compound 0.1 µM
[14] = second compound 0.0316 µM, first compound 1 µM
[15] = second compound 0.0316 µM, first compound 3.16 µM
[16] = second compound 0.0316 µM, first compound 10 µM
[17] = second compound 0.1 µM, first compound 0.1 µM
[18] = second compound 0.1 µM, first compound 1 µM
[19] = second compound 0.1 µM, first compound 3.16 µM
[20] = second compound 0.1 µM, first compound 10 µM
[21] = second compound 0.316 µM, first compound 0.1 µM
[22] = second compound 0.316 µM, first compound 1 µM
[23] = second compound 0.316 µM, first compound 3.16 µM
[24] = second compound 0.316 µM, first compound 10 µM
[25] = second compound 1 µM, first compound 0.1 µM
[26] = second compound 1 µM, first compound 1 µM
[27] = second compound 1 µM, first compound 3.16 µM
[28] = second compound 1 µM, first compound 10 µM
[29] = second compound 3.16 µM, first compound 0.1 µM
[30] = second compound 3.16 µM, first compound 1 µM
[31] = second compound 3.16 µM, first compound 3.16 µM
[32] = second compound 3.16 µM, first compound 10 µM
[33] = second compound 10 µM, first compound 0.1 µM
[34] = second compound 10 µM, first compound 1 µM
[35] = second compound 10 µM, first compound 3.16 µM
[36] = second compound 10 µM, first compound 10 µM
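Also: spheroids exposed to agents for 7 days before readout.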
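For viability, T/C in this document: percent viability relative to DMSO vehicle control wells taken as 100%.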

Structure (SMILES): Cn1ncnc1[C@H]1c2n[nH]c(=O)c3cc(F)cc(c23)N[C@@H]1c1ccc(F)cc1 + Cc1cnc(CNC(=O)c2c(=O)c3ccc(N4CCCN(C)CC4)nc3n3c2sc2ccccc23)cn1
- IC50 (second compound 0.0316 µM): > 316 nM
- IC50 (second compound 0.1 µM): 237 nM
- IC50 (second compound 0.316 µM): < 0.999 nM
- IC50 (second compound 1 µM): < 0.999 nM
- IC50 (second compound 3.16 µM): < 0.999 nM
- IC50 (second compound 10 µM): < 0.999 nM
- viability, T/C (second compound 0.0316 µM, first compound 0.000999 µM): 102%
- viability, T/C (second compound 0.0316 µM, first compound 0.00316 µM): 99.4%
- viability, T/C (second compound 0.0316 µM, first compound 0.00999 µM): 104%
- viability, T/C [1]: 94.8%
- viability, T/C (second compound 0.0316 µM, first compound 0.0999 µM): 86.5%
- viability, T/C [2]: 77.9%
- viability, T/C (second compound 0.1 µM, first compound 0.000999 µM): 68.2%
- viability, T/C (second compound 0.1 µM, first compound 0.00316 µM): 75.2%
- viability, T/C (second compound 0.1 µM, first compound 0.00999 µM): 77.9%
- viability, T/C [3]: 56.5%
- viability, T/C (second compound 0.1 µM, first compound 0.0999 µM): 58.5%
- viability, T/C [4]: 48.1%
- viability, T/C (second compound 0.316 µM, first compound 0.000999 µM): 40.9%
- viability, T/C (second compound 0.316 µM, first compound 0.00316 µM): 53.4%
- viability, T/C (second compound 0.316 µM, first compound 0.00999 µM): 44.3%
- viability, T/C [5]: 44.4%
- viability, T/C (second compound 0.316 µM, first compound 0.0999 µM): 48.4%
- viability, T/C [6]: 29.5%
- viability, T/C (second compound 1 µM, first compound 0.000999 µM): 28.2%
- viability, T/C (second compound 1 µM, first compound 0.00316 µM): 34.9%
- viability, T/C (second compound 1 µM, first compound 0.00999 µM): 27.3%
- viability, T/C [7]: 44.1%
- viability, T/C (second compound 1 µM, first compound 0.0999 µM): 33.2%
- viability, T/C [8]: 33.2%
- viability, T/C (second compound 3.16 µM, first compound 0.000999 µM): 34.9%
- viability, T/C (second compound 3.16 µM, first compound 0.00316 µM): 27.5%
- viability, T/C (second compound 3.16 µM, first compound 0.00999 µM): 26.4%
- viability, T/C [9]: 30.6%
- viability, T/C (second compound 3.16 µM, first compound 0.0999 µM): 29%
- viability, T/C [10]: 33.3%
- viability, T/C (second compound 10 µM, first compound 0.000999 µM): 31.2%
- viability, T/C (second compound 10 µM, first compound 0.00316 µM): 27.4%
- viability, T/C (second compound 10 µM, first compound 0.00999 µM): 30.1%
- viability, T/C [11]: 35.5%
- viability, T/C (second compound 10 µM, first compound 0.0999 µM): 27.4%
- viability, T/C [12]: 30.2%

Structure (SMILES): CC(=O)O[C@H]1C(=O)[C@@]2(C)[C@H]([C@H](OC(=O)c3ccccc3)[C@]3(O)C[C@H](OC(=O)[C@H](O)[C@@H](NC(=O)c4ccccc4)c4ccccc4)C(C)=C1C3(C)C)[C@]1(OC(C)=O)CO[C@@H]1C[C@@H]2O + CN(C)c1ccc(Nc2c3ccc(NC(=O)CCN4CCCC4)cc3nc3cc(NC(=O)CCN4CCCC4)ccc23)cc1
- IC50 (second compound 0.0316 µM): < 31.6 nM
- IC50 (second compound 0.1 µM): < 31.6 nM
- IC50 (second compound 0.316 µM): < 31.6 nM
- IC50 (second compound 1 µM): < 31.6 nM
- IC50 (second compound 3.16 µM): < 31.6 nM
- IC50 (second compound 10 µM): < 31.6 nM
- viability, T/C [1]: 28.9%
- viability, T/C [13]: 20.4%
- viability, T/C [2]: 18.1%
- viability, T/C [14]: 14.6%
- viability, T/C [15]: 12.1%
- viability, T/C [16]: 13.2%
- viability, T/C [3]: 24.7%
- viability, T/C [17]: 19.5%
- viability, T/C [4]: 16.4%
- viability, T/C [18]: 14%
- viability, T/C [19]: 12.8%
- viability, T/C [20]: 11.4%
- viability, T/C [5]: 41.4%
- viability, T/C [21]: 22.1%
- viability, T/C [6]: 14.8%
- viability, T/C [22]: 10.8%
- viability, T/C [23]: 12.3%
- viability, T/C [24]: 14.2%
- viability, T/C [7]: 34%
- viability, T/C [25]: 15%
- viability, T/C [8]: 16%
- viability, T/C [26]: 8.58%
- viability, T/C [27]: 16.5%
- viability, T/C [28]: 12.9%
- viability, T/C [9]: 28.6%
- viability, T/C [29]: 14.3%
- viability, T/C [10]: 15.3%
- viability, T/C [30]: 11.1%
- viability, T/C [31]: 11.2%
- viability, T/C [32]: 11.8%
- viability, T/C [11]: 26.2%
- viability, T/C [33]: 16.4%
- viability, T/C [12]: 17.4%
- viability, T/C [34]: 12.2%
- viability, T/C [35]: 9.14%
- viability, T/C [36]: 11.9%

Structure (SMILES): C=CC(=O)N1CCN(c2nc(=O)n(-c3c(C)ccnc3C(C)C)c3nc(-c4c(O)cccc4F)c(F)cc23)C(C)C1 (stereo unspecified) + Cc1[nH]c2ccc(F)cc2c1-c1nc2c3cccnc3c3ncccc3c2[nH]1
- IC50 (second compound 0.0316 µM): > 10000 nM
- IC50 (second compound 0.1 µM): > 10000 nM
- IC50 (second compound 0.316 µM): > 10000 nM
- IC50 (second compound 1 µM): > 10000 nM
- IC50 (second compound 3.16 µM): > 10000 nM
- IC50 (second compound 10 µM): > 10000 nM
- viability, T/C [1]: 102%
- viability, T/C [13]: 95%
- viability, T/C [2]: 97.3%
- viability, T/C [14]: 104%
- viability, T/C [15]: 89.7%
- viability, T/C [16]: 82.1%
- viability, T/C [3]: 102%
- viability, T/C [17]: 92.5%
- viability, T/C [4]: 102%
- viability, T/C [18]: 96.9%
- viability, T/C [19]: 93.9%
- viability, T/C [20]: 71.6%
- viability, T/C [5]: 87.4%
- viability, T/C [21]: 98.6%
- viability, T/C [6]: 96.8%
- viability, T/C [22]: 108%
- viability, T/C [23]: 88.6%
- viability, T/C [24]: 67.7%
- viability, T/C [7]: 99.7%
- viability, T/C [25]: 93.2%
- viability, T/C [8]: 90.8%
- viability, T/C [26]: 105%
- viability, T/C [27]: 92.5%
- viability, T/C [28]: 71.8%
- viability, T/C [9]: 100%
- viability, T/C [29]: 88.2%
- viability, T/C [10]: 107%
- viability, T/C [30]: 88.3%
- viability, T/C [31]: 87.6%
- viability, T/C [32]: 59.1%
- viability, T/C [11]: 99.7%
- viability, T/C [33]: 84.9%
- viability, T/C [12]: 88%
- viability, T/C [34]: 90.2%
- viability, T/C [35]: 86.2%
- viability, T/C [36]: 69.2%

From PubChem BioAssay AID2060493 (Molecular Pharmacology Branch, DTP, NCI, 2025)
